Laboratory results published in paper PMC12267067, “Targeting GRPR for sex hormone-dependent cancer after loss of E-cadherin” (Nature, 2025).
No end group written: not given here.

Tests used:
[1] = tested on: human melanoma cell lines (MDA-MB-435S, 501mel); experiment: Cell growth (cell counting), human melanoma cell lines; format: cell-based; settings: 48 h
Description: Six-well tissue-culture plates were seeded with 3 × 10^5 melanoma cells in complete medium. After 24 h, the medium was replaced by low-serum medium (0.5% for murine melanoma cell lines and 1% for human melanoma cells) and the cells were incubated for a further 18 h before stimulation with 10 nM GRP (4011670 bachem) and/or 1 µM RC (R9653, Sigma-Aldrich) for 48 h. The plates were trypsinized just after stimulation or 48 h later and the cells were counted. For the MTT assay, 10,000 cells were seeded per well in 96-well plates. After 24 h, cells were starved overnight and then treated with 10 nM GRP and/or 1 µM RC for 48 h in low-serum medium (0.5% FBS). Next, MTT (M5655, Sigma-Aldrich) was added to the wells to a final concentration of 0.5 mg ml^−1 and the plates were incubated for 3 h. The medium was removed and formazan crystals dissolved in 200 µl DMSO. The absorbance was read at 570 nm using a LUMIstar Omega […] (BMG Labtech). All growth experiments were done using three technical replicates and three biological replicates. For the clonogenic assay, six-well tissue-culture plates were seeded with 500 cells in complete medium. After 10 days (20 days for 1181), colonies were fixed with 4% PFA for 15 min and stained with 10% crystal violet in ethanol for 20 min and counted in images using ImageJ software. Experiments were done in triplicate.

[2] = tested on: ECAD in 501mel cells with and without GRPR; experiment: Western blot of ECAD with and without GRP; format: cell-based, human; settings: 501mel cells expressing GRPR, 10 nM GRP
Description: Whole-cell lysates were prepared and analysed as described previously. The primary antibodies used were: E-cadherin (610182, BD Transduction Laboratories, dilution 1/1,000); ERα (MA1-27107, Invitrogen, dilution 1/500); YAP (14074, Cell Signaling, dilution 1/1,000); β-actin (A5441, Sigma, dilution 1/5,000); and vinculin (4650, Cell Signaling, dilution 1/5,000). All raw data are provided in Supplementary Fig. 1.

[3] = tested on: YAP1 activation signature; experiment: YAP1 activation signature (GSEA) and YAP1 score by RNA-seq, human melanoma cell lines; format: cell-based; settings: 4 h, 10 nM GRP
Description: The transcriptome, copy-number alteration, mutations and corresponding clinical data of the TCGA–SKCM (n = 473), TCGA–BRCA (n = 1,215), TCGA–STAD (n = 450), TCGA–LUSC (n = 553) and TCGA–KIRC (n = 606) datasets were retrieved from the National Cancer Institute Genomic Data Commons repository using the TCGAbiolinks R package in August 2022 (ref. [51]). The mRNA levels were calculated from RNA-sequencing read counts using RNA-Seq V2 RSEM and normalized to TPM. Expression of CDH1, CCND1, BRAF and KRAS was modelled over time using LOWESS smoothing with 1,860 points. Expression levels from acral melanoma were retrieved from GEO under accession number GSE162682. Survival analyses were carried out by separating the cohort into two groups according to gene expression. The threshold was set to 1 TPM, commonly considered to be the limit for sufficient protein expression of the transcript. The negative group was set to an expression 0.1 TPM or less to have clear separation in terms of expression (factor 10) from the positive group. […] The scoring of YAP1 activation was determined from the expression of CYR61, CTGF, TEAD4, LATS2 and CRIM1. […] The anoikis-resistance score was calculated on the basis of the expression of S100A7A, MTPN, ATP10B, S100A8, RSAD2, RENBP, CDHR1 and CD36. The ER-activation score was calculated according to the expressions of GATA4, SDK2, EGR3, IL19, GSG1L, RSPO1, PGR, IL24 and PDZK1. […]
RNA was extracted from cells and mouse tumours using the miRNeasy kit (Qiagen, 217004), according to the manufacturer’s protocol. RNA integrity (RIN) was measured using an Agilent Bioanalyser 2100 (Agilent Technologies) and an RNA nano 6000 kit (5067-1511, Agilent Technologies). […] RNA concentrations were measured using a NanoDrop (NanoDrop Technologies). […] The libraries were equimolarly pooled and subjected to qPCR quantification using the KAPA library quantification kit (Roche). […] Reads were mapped to the mm10 mouse reference genome (gencode m13 version-GRCm38.p5) or hg38 human reference genome (gencode 42 version-GRCh38.p13) using STAR[60]. […]

## GRP: GRPR's natural agonist, endogenous ligand of GRPR (4011670 bachem) (VPLPAGGGTVLTKMYPRGNHWAVGHLM; not fully specified; ends and bridges not checked; UniProt P07492 24-50, looked up)
[1]; 501mel, 10 nM GRP, low serum
  cell growth, GRPR-negative human cells: had no effect
[1]; MDA-MB-435S, 10 nM GRP and/or 1 µM RC, low serum 1%
  cell growth, GRPR-positive human line: promoted growth
[2]
  ECAD protein level: lower
[3]; 501mel-GRPR, FDR <0.0001
  GSEA YAP activation, GRP vs. Mock: NES: 2.07
[3]; Dauv-1, FDR <0.0001
  GSEA YAP activation, GRP vs. Mock: NES: 2.21
[3]; MDA-MB-435S, FDR =0.0408
  GSEA YAP activation, GRP vs. Mock: NES: 1.32
